Reference: patent publication EP4768499A1, “MACROCYCLIC PEPTIDE COMPOUND HAVING CELL MEMBRANE PERMEABILITY AND METABOLIC STABILITY, AND LIBRARY CONTAINING SAME” (Chugai Seiyaku Kabushiki Kaisha, priority 2023, dated 2025)
One block for each compound: values may come before it. Starred links: 1 amine or outer side, 2 acyl side, 3 side chain; linkers in the order of their positions; H or OH if unused. Positions of bridges follow the written chain, without caps; N, C: chain ends. Non-standard residues stand in square brackets, D forms with d. Residues, ends and D or L forms follow the SMILES beside them. *: point of attachment. NMedβ3hAla = C[C@H](CC(=O)[*:2])N(C)[*:1]; NMeF = CN[C@@H](Cc1ccccc1)C(=O)O; NMeI = CC[C@H](C)[C@H](NC)C(=O)O; NMeT = CN[C@H](C(=O)O)[C@@H](C)O; hPhe = N[C@@H](CCc1ccccc1)C(=O)O; NMeβAla = CN(CCC(=O)[*:2])[*:1]; NMeD = CN[C@@H](CC(=O)O)C(=O)O; NMeL = CN[C@@H](CC(C)C)C(=O)O; NMeV = CN[C@H](C(=O)O)C(C)C; NMeAbu = CC[C@H](NC)C(=O)O; NMeA = CN[C@@H](C)C(=O)O; Piperidide = C1CCN(*)CC1; Abu = CC[C@H](N)C(=O)O; NBuGly = CCCCNCC(=O)O; βAla = NCCC(=O)O; Sar = CNCC(=O)O; tBu = CC(C)(C)*

Experiments:
[1] = Metabolic stability test: liver microsomal stability assay; type: in vitro ADME, mouse; settings: mouse liver microsomes 0.5 mg protein/mL, compound 1 µM; for microsomal CLint at 1 µM: male, pH 7.4, presence of NADPH, read-out: Mouse Hepatic Microsome CLh,int NADPH(+); for Mouse Hepatic Microsome CLh,int NADPH(-): absence of NADPH
[2] = Membrane permeability test using Caco-2 cells with preincubation; type: in vitro ADME; settings: Caco-2; preincubation 20 to 24 hours; Apical FaSSIF/HBSS pH 6.0, Basal HBSS 4% BSA pH 7.4; 180 minutes; read-out: Caco2 Papp
[3] = test system: Caco-2 cells; assay: as above; type: in vitro ADME; settings: Caco-2 cells, preincubation 20 to 24 hours; apical FaSSIF/HBSS 1% DMSO pH 6.0, basal HBSS 4% BSA pH 7.4; basal sample at 180 minutes

Compound: CC[C@H]1C(=O)N(C)[C@H](C)CC(=O)N[C@H](C(C)C)C(=O)N(C)[C@@H](CC(C)C)C(=O)N(C)[C@@H](C(C)C)C(=O)N[C@@H](C)C(=O)N(C)[C@@H](CC(C)C)C(=O)NCC(=O)N(C)[C@@H]([C@@H](C)O)C(=O)N(C)[C@@H](Cc2ccccc2)C(=O)N(C)[C@@H](CC)C(=O)N[C@@H](COC(C)(C)C)C(=O)N(C)[C@@H](C)C(=O)N(C)[C@@H](C(C)C)C(=O)N1C [pd071] (cyclo(A[NMeL]G[NMeT][NMeF][NMeAbu]S(tBu)[NMeA][NMeV][NMeAbu][NMedβ3hAla][dV][NMeL][NMeV]))
- microsomal CLint at 1 µM [1]: 13.3 µL/min/mg
- Mouse Hepatic Microsome CLh,int NADPH(-) [1]: 6.2 µL/min/mg Protein
- Papp A→B [2]: 0.22 ×10⁻⁶ cm/s
- Caco2 Papp (10^-6 cm/sec) [3]: 0.22 10^-6 cm/sec

Compound: CC[C@@H]1NC(=O)[C@H]([C@@H](C)O)NC(=O)[C@H](Cc2ccccc2)N(C)C(=O)[C@H](CC(C)C)N(C)C(=O)[C@H](C(C)C)N(C)C(=O)[C@H](CC)N(C)C(=O)[C@H]([C@@H](C)CC)NC(=O)[C@H](CC(C)C)N(C)C(=O)[C@H](C)N(C)C(=O)[C@H](C)NC(=O)C[C@@H](C)N(C)C(=O)[C@H](CC(C)C)N(C)C(=O)[C@H](C)N(C)C(=O)CN(C)C1=O [pd072] (cyclo(A[NMeA][NMeL]I[NMeAbu][NMeV][NMeL][NMeF]T[Abu][Sar][NMeA][NMeL][NMedβ3hAla]))
- microsomal CLint at 1 µM [1]: 22.4 µL/min/mg
- Mouse Hepatic Microsome CLh,int NADPH(-) [1]: 16.6 µL/min/mg Protein
- Papp A→B [2]: < 0.13 ×10⁻⁶ cm/s
- Caco2 Papp (10^-6 cm/sec) [3]: <0.13 10^-6 cm/sec

Compound: CC[C@H]1C(=O)N(C)[C@@H](CC(C)C)C(=O)N2CCC[C@H]2C(=O)N(C)[C@@H](CC)C(=O)N[C@@H](CCc2ccccc2)C(=O)N(C)[C@@H](C)C(=O)N(C)[C@@H](CC)C(=O)N[C@@H](C(C)C)C(=O)N(C)[C@H](C)CC(=O)N(C)CC(=O)N(C)[C@@H](Cc2ccccc2)C(=O)N[C@@H]([C@@H](C)O)C(=O)N(C)[C@@H](CC(C)C)C(=O)N[C@@H](C(C)C)C(=O)N1C [pd073] (cyclo([NMeA][NMeAbu]V[NMedβ3hAla][Sar][NMeF]T[NMeL]V[NMeAbu][NMeL]P[NMeAbu][hPhe]))
- microsomal CLint at 1 µM [1]: 24.3 µL/min/mg
- Mouse Hepatic Microsome CLh,int NADPH(-) [1]: 2.9 µL/min/mg Protein
- Papp A→B [2]: < 0.12 ×10⁻⁶ cm/s
- Caco2 Papp (10^-6 cm/sec) [3]: <0.12 10^-6 cm/sec

Compound: CCCCN1CC(=O)N(C)[C@@H](Cc2ccccc2)C(=O)N[C@@H](COC(C)(C)C)C(=O)N(C)[C@@H](CC(C)C)C(=O)NCCC(=O)N(C)[C@@H](C)C(=O)N[C@@H]([C@@H](C)CC)C(=O)N(C)[C@@H](CC(C)C)C(=O)N[C@@H](C(C)C)C(=O)N(C)[C@H](C(=O)N2CCCCC2)CC(=O)N(C)CCC(=O)N(C)[C@@H](CC(C)C)C(=O)N[C@@H]([C@@H](C)CC)C(=O)N(C)[C@@H](Cc2ccccc2)C1=O [pd077] ([NMeβAla][NMeL]I[NMeF][NBuGly][NMeF]S(tBu)[NMeL][βAla][NMeA]I[NMeL]V[NMeD]-Piperidide; lactam N-14)
- microsomal CLint at 1 µM [1]: 40 µL/min/mg
- Mouse Hepatic Microsome CLh,int NADPH(-) [1]: 40.3 µL/min/mg Protein
- Papp A→B [2]: 0.32 ×10⁻⁶ cm/s
- Caco2 Papp (10^-6 cm/sec) [3]: 0.32 10^-6 cm/sec

Next, values leading:

- microsomal CLint at 1 µM [1]: 35.6 µL/min/mg
- Mouse Hepatic Microsome CLh,int NADPH(-) [1]: 42.8 µL/min/mg Protein
- Papp A→B [2]: 0.17 ×10⁻⁶ cm/s
- Caco2 Papp (10^-6 cm/sec) [3]: 0.17 10^-6 cm/sec
Compound: CC[C@@H]1NC(=O)[C@H](CC(C)C)N(C)C(=O)[C@H](CC(C)C)NC(=O)[C@H](C)N(C)C(=O)C[C@@H](C(=O)N2CCCCC2)N(C)C(=O)[C@H](C)N(C)C(=O)[C@H](CC(C)C)NC(=O)[C@H](CC(C)C)N(C)C(=O)CNC(=O)[C@H]([C@@H](C)CC)N(C)C(=O)[C@H](Cc2ccccc2)N(C)C(=O)[C@H](C)NC(=O)[C@H]([C@@H](C)CC)NC(=O)[C@H](Cc2ccccc2)N(C)C1=O [pd075] ([NMeA]L[NMeL][Abu][NMeF]IA[NMeF][NMeI]G[NMeL]L[NMeA][NMeD]-Piperidide; lactam N-14)

- microsomal CLint at 1 µM [1]: 28.3 µL/min/mg
- Mouse Hepatic Microsome CLh,int NADPH(-) [1]: 22.9 µL/min/mg Protein
- Papp A→B [2]: 2.75 ×10⁻⁶ cm/s
- Caco2 Papp (10^-6 cm/sec) [3]: 2.75 10^-6 cm/sec
Compound: CC[C@@H]1NC(=O)[C@H](CC(C)C)N(C)C(=O)C[C@@H](C(=O)N2CCCCC2)N(C)C(=O)[C@H](C(C)C)NC(=O)[C@H](CC(C)C)N(C)C(=O)[C@H](C)NC(=O)[C@H](CC)N(C)C(=O)[C@H](C(C)C)NC(=O)[C@H](CC(C)C)N(C)C(=O)[C@H](C)N(C)C(=O)[C@H](Cc2ccccc2)N(C)C(=O)[C@H](C(C)C)NC(=O)[C@@H]2CCCN2C(=O)[C@H](C(C)C)N(C)C1=O [pd078] ([NMeL][Abu][NMeV]PV[NMeF][NMeA][NMeL]V[NMeAbu]A[NMeL]V[NMeD]-Piperidide; lactam N-14)
